assay: Inhibition of calcium ionophore (A-23187)-stimulated LTB4 formation in human neutrophil assay

| Structure (SMILES) | IC50 [nM] |
| --- | --- |
| CCCCC(O/N=C/C(=O)O)c1ccc(OCc2ccc3ccccc3n2)cc1 (stereo not given) [{1-[4-(Quinolin-2-ylmethoxy)-phenyl]-pentyloxyimino}-acetic acid] | 52 |
| C/C(=N\OC(Cc1ccc(OCc2ccc3ccccc3n2)cc1)C1CCCCC1)C(=O)O (stereo not given) [2-{1-Cyclohexyl-2-[4-(quinolin-2-ylmethoxy)-phenyl]-ethoxyimino}-propionic acid] | 50 |
| C/C(=N\OC(c1ccc(OCc2ccc3ccccc3n2)cc1)C1C2CC3CC(C2)CC1C3)C(=O)O (stereo not given) [2-{Adamantan-2-yl-[4-(quinolin-2-ylmethoxy)-phenyl]-methoxyimino}-propionic acid] | 20 |
| C/C(=N\OC(c1ccc(OCc2ccc3ccccc3n2)cc1Cl)C1CCCCC1)C(=O)O (stereo not given) [2-{[2-Chloro-4-(quinolin-2-ylmethoxy)-phenyl]-cyclohexyl-methoxyimino}-propionic acid] | 14 |
| O=C(O)/C(=N\OC(c1ccc(OCc2ccc3ccccc3n2)cc1)C1CCCCC1)c1cccs1 (stereo not given) | 23 |
| C/C(=N\OC(c1ccc(OCc2nc(-c3ccccc3)cs2)cc1)C1CCCCC1)C(=O)O (stereo not given) [2-{Cyclohexyl-[4-(4-phenyl-thiazol-2-ylmethoxy)-phenyl]-methoxyimino}-propionic acid (0.5H2O)] | 20 |
| O=C(O)/C(CCc1ccccc1)=N/OC(c1ccc(OCc2ccc3ccccc3n2)cc1)C1CCCCC1 (stereo not given) [2-{Cyclohexyl-[4-(quinolin-2-ylmethoxy)-phenyl]-methoxyimino}-4-phenyl-butyric acid (0.5H2O)] | 20 |
| C/C(=N\OC(Cc1ccccc1)c1ccc(OCc2ccc3ccccc3n2)cc1)C(=O)O (stereo not given) [2-{2-Phenyl-1-[4-(quinolin-2-ylmethoxy)-phenyl]-ethoxyimino}-propionic acid (0.25H2O)] | 30 |
| C/C(=N\OC(CC(C)(C)c1ccccc1)c1ccc(OCc2ccc3ccccc3n2)cc1)C(=O)O (stereo not given) [2-{3-Methyl-3-phenyl-1-[4-(quinolin-2-ylmethoxy)-phenyl]-butoxyimino}-propionic acid (0.25H2O)] | 22 |
| C/C(=N\OC(c1ccc(OCc2ccc3ccccc3n2)cc1)c1cccs1)C(=O)O (stereo not given) [2-{[4-(Quinolin-2-ylmethoxy)-phenyl]-thiophen-2-yl-methoxyimino}-propionic acid] | 33 |
| CC(C)c1ccc(-c2csc(COc3ccc(C(O/N=C/C(=O)O)C4CCCCC4)cc3)n2)cc1 (stereo not given) [(Cyclohexyl-{4-[4-(4-isopropyl-phenyl)-thiazol-2-ylmethoxy]-phenyl}-methoxyimino)-acetic acid (2H2O)] | 35 |
| C/C(CCC(=O)O)=N\OC(c1ccc(OCc2ccc3ccccc3n2)cc1)C1CCCCC1 (stereo not given) [(Z)-4-{Cyclohexyl-[4-(quinolin-2-ylmethoxy)-phenyl]-methoxyimino}-pentanoic acid] | 17 |
| O=C(O)/C(=N/OC(c1ccc(OCc2ccc3ccccc3n2)cc1)C1CCCCC1)c1cccs1 (stereo not given) [(E)-{Cyclohexyl-[4-(quinolin-2-ylmethoxy)-phenyl]-methoxyimino}-thiophen-2-yl-acetic acid (2.5H2O)] | 21 |
| O=C(O)/C=N/OC(c1ccc(OCc2csc(-c3ccc(Cl)cc3)n2)cc1)C1CCCCC1 (stereo not given) [({4-[2-(4-Chloro-phenyl)-thiazol-4-ylmethoxy]-phenyl}-cyclohexyl-methoxyimino)-acetic acid] | 490 |
| C/C(=N\OC(c1ccc(OCc2nc3ccccc3s2)cc1)C1CCCCC1)C(=O)O (stereo not given) [2-{[4-(Benzothiazol-2-ylmethoxy)-phenyl]-cyclohexyl-methoxyimino}-propionic acid (0.5H2O)] | 60 |
| C/C(=N\OC(c1cc(OCc2ccc3ccccc3n2)on1)C1CCCCC1)C(=O)O (stereo not given) [2-{Cyclohexyl-[5-(quinolin-2-ylmethoxy)-isoxazol-3-yl]-methoxyimino}-propionic acid] | 490 |
| O=C(O)CSC(CCCc1ccc(Cl)cc1)c1ccc(OCc2ccc3ccccc3n2)cc1 [L-674636] | 7 |
| C/C(CCC(=O)O)=N/OC(c1ccc(OCc2ccc3ccccc3n2)cc1)C1CCCCC1 (stereo not given) | 20 |
| C/C(=N\OC(c1cc2cc(OCc3ccc4ccccc4n3)ccc2s1)C1CCCCC1)C(=O)O (stereo not given) [2-{Cyclohexyl-[5-(quinolin-2-ylmethoxy)-benzo[b]thiophen-2-yl]-methoxyimino}-propionic acid] | 33 |
| C/C(=N\OC(c1ccc(OCc2nc3cc(F)ccc3s2)cc1Cl)C1CCCCC1)C(=O)O (stereo not given) [2-{[2-Chloro-4-(5-fluoro-benzothiazol-2-ylmethoxy)-phenyl]-cyclohexyl-methoxyimino}-propionic acid] | 48 |
| O=C(O)[C@@H](c1ccc(OCc2ccc3ccccc3n2)cc1)C1CCCC1 [(R)-Cyclopentyl-[4-(quinolin-2-ylmethoxy)-phenyl]-acetic acid] | 60 |
| C/C(=N\OC(c1ccc(OCc2ccc3ccccc3n2)cc1)C1CCCCCC1)C(=O)O (stereo not given) [2-{Cycloheptyl-[4-(quinolin-2-ylmethoxy)-phenyl]-methoxyimino}-propionic acid (0.5H2O)] | 13 |
| C/C(=N\OC(c1ccc(OCc2ccc3ccccc3n2)c(Cl)c1)C1CCCCC1)C(=O)O (stereo not given) [2-{[3-Chloro-4-(quinolin-2-ylmethoxy)-phenyl]-cyclohexyl-methoxyimino}-propionic acid] | 27 |
| CC(/C=C/C(=O)O)=N\OC(c1ccc(OCc2ccc3ccccc3n2)cc1)C1CCCCC1 (stereo not given) [4-{Cyclohexyl-[4-(quinolin-2-ylmethoxy)-phenyl]-methoxyimino}-pent-2-enoic acid (0.25H2O)] | 40 |
| O=C(O)/C=N/OC(c1ccc(-c2ccc3ccccc3n2)cc1)C1CCCCC1 (stereo not given) [[Cyclohexyl-(4-quinolin-2-yl-phenyl)-methoxyimino]-acetic acid(0.25H2O)] | 1200 |

Next, values leading:

| IC50 [nM] | Structure (SMILES) |
| --- | --- |
| 27 | O=C(O)/C=N/OC(c1ccc(OCc2nc3cccnc3s2)cc1)C1CCCCC1 (stereo not given) [{Cyclohexyl-[4-(thiazolo[5,4-b]pyridin-2-ylmethoxy)-phenyl]-methoxyimino}-acetic acid] |
| 91 | O=C(O)/C=N/OC(c1ccc(/C=C/c2ccc3ccccc3n2)cc1)C1CCCCC1 (stereo not given) [{Cyclohexyl-[4-(2-quinolin-2-yl-vinyl)-phenyl]-methoxyimino}-acetic acid (0.25H2O)] |
| 87 | O=C(O)/C=N/OC(c1ccc(OCc2nc3cc(F)ccc3s2)cc1)C1CCCCC1 (stereo not given) [{Cyclohexyl-[4-(5-fluoro-benzothiazol-2-ylmethoxy)-phenyl]-methoxyimino}-acetic acid] |
| 56 | O=C(O)/C=N/OC(c1ccc2cc(OCc3ccc4ccccc4n3)ccc2c1)C1CCCCC1 (stereo not given) [{Cyclohexyl-[6-(quinolin-2-ylmethoxy)-naphthalen-2-yl]-methoxyimino}-acetic acid] |
| 20 | COc1cc(OCc2ccc3ccccc3n2)ccc1C(O/N=C/C(=O)O)C1CCCCC1 (stereo not given) [{Cyclohexyl-[2-methoxy-4-(quinolin-2-ylmethoxy)-phenyl]-methoxyimino}-acetic acid] |
| 47 | O=C(O)/C=N/OCC(c1ccc(OCc2ccc3ccccc3n2)cc1)C1CCCCC1 (stereo not given) [{2-Cyclohexyl-2-[4-(quinolin-2-ylmethoxy)-phenyl]-ethoxyimino}-acetic acid (0.25H2O)] |
| 380 | Cc1nc(COc2ccc(C(O/N=C/C(=O)O)C3CCCCC3)cc2)cs1 (stereo not given) [{Cyclohexyl-[4-(2-methyl-thiazol-4-ylmethoxy)-phenyl]-methoxyimino}-acetic acid] |
| 22 | O=C(O)/C=N/OC(c1ccc(OCc2nc3ccccc3s2)cc1Br)C1CCCCC1 (stereo not given) [{[4-(Benzothiazol-2-ylmethoxy)-2-bromo-phenyl]-cyclohexyl-methoxyimino}-acetic acid] |
| 20 | Cc1cc(C(O/N=C/C(=O)O)C2CCCCC2)ccc1OCc1ccc2ccccc2n1 (stereo not given) [{Cyclohexyl-[3-methyl-4-(quinolin-2-ylmethoxy)-phenyl]-methoxyimino}-acetic acid (0.4H2O)] |
| 18 | O=C(O)/C=N/OC(c1ccc(OCc2ccc3ccccc3n2)cc1)C1CCCCCC1 (stereo not given) [{Cycloheptyl-[4-(quinolin-2-ylmethoxy)-phenyl]-methoxyimino}-acetic acid] |
| 140 | O=C(O)/C=N/OC(c1ccc(OCc2cc(-c3ccccc3)on2)cc1)C1CCCCC1 (stereo not given) [{Cyclohexyl-[4-(5-phenyl-isoxazol-3-ylmethoxy)-phenyl]-methoxyimino}-acetic acid] |
| 25 | O=C(O)/C=N/OC(c1ccc(OCc2cnc3ccccc3n2)cc1)C1CCCCC1 (stereo not given) [{Cyclohexyl-[4-(quinoxalin-2-ylmethoxy)-phenyl]-methoxyimino}-acetic acid] |
| 150 | O=C(O)/C=N/OC(c1ccc(OCc2ccccn2)cc1)C1CCCCC1 (stereo not given) [{Cyclohexyl-[4-(pyridin-2-ylmethoxy)-phenyl]-methoxyimino}-acetic acid] |
| 17 | O=C(O)/C=N/OC(c1ccc(OCc2ccc3ccccc3n2)cc1)C1CCCCC1 (stereo not given) [{Cyclohexyl-[4-(quinolin-2-ylmethoxy)-phenyl]-methoxyimino}-acetic acid] |
| 28 | O=C(O)/C=N/OC(c1ccc(OCc2nc3ccccc3s2)cc1Cl)C1CCCCC1 (stereo not given) [{[4-(Benzothiazol-2-ylmethoxy)-2-chloro-phenyl]-cyclohexyl-methoxyimino}-acetic acid] |
| 21 | O=C(O)/C=N/OC(c1ccc(OCc2nc(-c3ccccc3)cs2)cc1)C1CCCCC1 (stereo not given) [{Cyclohexyl-[4-(4-phenyl-thiazol-2-ylmethoxy)-phenyl]-methoxyimino}-acetic acid (1.25H2O)] |
| 30 | O=C(O)/C=N/OC(c1ccc(OCc2ccc3ccccc3n2)cc1)C1CCCC1 (stereo not given) [{Cyclopentyl-[4-(quinolin-2-ylmethoxy)-phenyl]-methoxyimino}-acetic acid] |
| 290 | O=C(O)/C=N/OC(c1ccc(CCc2ccc3ccccc3n2)cc1)C1CCCCC1 (stereo not given) [{Cyclohexyl-[4-(2-quinolin-2-yl-ethyl)-phenyl]-methoxyimino}-acetic acid (0.25H2O)] |
| 160 | O=C(O)/C=N/OC(c1ccc(Oc2ccc3ccccc3n2)cc1)C1CCCCC1 (stereo not given) [{Cyclohexyl-[4-(quinolin-2-yloxy)-phenyl]-methoxyimino}-acetic acid (0.25H2O)] |
| 14 | O=C(O)/C=N/OC(c1ccc(OCc2nc3cc(F)ccc3s2)cc1Cl)C1CCCCC1 (stereo not given) [{[2-Chloro-4-(5-fluoro-benzothiazol-2-ylmethoxy)-phenyl]-cyclohexyl-methoxyimino}-acetic acid] |

Source: BindingDB's records for doi:10.1021/jm9904102 (Abbott Laboratories, 2000)
